Experimental data: ChEMBL document CHEMBL2157956, “Antibacterial activity of substituted dibenzo[a,g]quinolizin-7-ium derivatives” (2012)
Converted amounts (≈) assume the structure as drawn. The source made the active and inactive calls. The calls are words filed in the database; no cut-off is given here.

What was measured:
[1] = test system: Staphylococcus aureus; assay: Antibacterial activity against methicillin-resistant Staphylococcus aureus ATCC 33591 by CLSI broth microdilution method; format: functional
[2] = test system: Enterococcus faecalis; assay: Antibacterial activity against vancomycin-resistant Enterococcus faecalis ATCC 51575 by CLSI broth microdilution method; format: functional
[3] = test system: Enterococcus faecalis; assay: Antibacterial activity against vancomycin-sensitive Enterococcus faecalis ATCC 19433 by CLSI broth microdilution method; format: functional
[4] = test system: Staphylococcus aureus; assay: Antibacterial activity against methicillin-sensitive Staphylococcus aureus 8325-4 by CLSI broth microdilution method; format: functional
[5] = molecular target: T1, Cell division protein FtsZ (Staphylococcus aureus) (UniProt P0A031); assay: Induction of Staphylococcus aureus FtsZ self-polymerization assessed as increase in light scattering at 20 ug/mL measured every 5 secs by 90 deg angle light scattering assay
T1 sequence (whole entry): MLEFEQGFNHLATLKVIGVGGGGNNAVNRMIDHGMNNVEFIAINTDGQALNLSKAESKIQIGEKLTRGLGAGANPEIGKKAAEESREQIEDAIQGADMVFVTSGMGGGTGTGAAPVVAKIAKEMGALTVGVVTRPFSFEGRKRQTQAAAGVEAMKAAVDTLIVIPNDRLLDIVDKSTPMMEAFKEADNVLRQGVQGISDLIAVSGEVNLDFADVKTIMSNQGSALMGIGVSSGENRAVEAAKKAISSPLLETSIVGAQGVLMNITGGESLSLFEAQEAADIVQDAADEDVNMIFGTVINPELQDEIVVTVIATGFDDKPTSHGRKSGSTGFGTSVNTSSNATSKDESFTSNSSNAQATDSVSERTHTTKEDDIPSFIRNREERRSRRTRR

[6] = molecular target: T1, Cell division protein FtsZ (Staphylococcus aureus); assay: Induction of Staphylococcus aureus FtsZ self-polymerization assessed as increase in light scattering at 20 ug/mL by 90 deg angle light scattering assay; settings: TDE = time-dependent effect
[7] = molecular target: T1, Cell division protein FtsZ (Staphylococcus aureus); assay: Induction of Staphylococcus aureus FtsZ self-polymerization assessed as increase in light scattering at 10 ug/mL by 90 deg angle light scattering assay; settings: TDE = time-dependent effect
[8] = molecular target: T1, Cell division protein FtsZ (Staphylococcus aureus); assay: Inhibition of Staphylococcus aureus FtsZ self-polymerization assessed as decrease in light scattering at 20 ug/mL by 90 deg angle light scattering assay; settings: TDE = time-dependent effect

COc1cc2c[n+]3ccc4c(OC)c(OC)ccc4c3cc2c(-c2ccc(-c3ccccc3)cc2)c1OC.[Cl-]
MIC [1]: 8 µg/mL
MIC [2]: 16 µg/mL
MIC [3]: 8 µg/mL
MIC [4]: 2 µg/mL

COc1cc2cc3c4cc(-c5ccccc5)c(OC)c(OC)c4cc[n+]3cc2cc1OC.[Cl-]
MIC [1]: 8 µg/mL
MIC [2]: 32 µg/mL
MIC [3]: 16 µg/mL
MIC [4]: 4 µg/mL

CCC[C@@H]1C[C@@H](C(=O)N[C@@H]([C@H]2O[C@H](SC)[C@H](O)[C@@H](O)[C@H]2O)[C@H](C)Cl)N(C)C1 [CLINDAMYCIN]
MIC [1]: > 64 µg/mL
MIC [2]: > 64 µg/mL
MIC [3]: 2 µg/mL (≈ 4.71 µM)
MIC [4]: 0.03 µg/mL (≈ 0.0706 µM)

CC(=O)OS(=O)(=O)[O-].COc1cc2cc3c4cc(-c5ccccc5)c(OC)cc4cc[n+]3c(C)c2cc1OC
MIC [1]: > 64 µg/mL
MIC [2]: > 64 µg/mL
MIC [3]: > 64 µg/mL
MIC [4]: 8 µg/mL

Cc1onc(-c2ccccc2)c1C(=O)N[C@@H]1C(=O)N2[C@@H]1SC(C)(C)[C@@H]2C(=O)O [OXACILLIN]
Activity [5]: inactive
MIC [1]: > 64 µg/mL
MIC [2]: > 64 µg/mL
MIC [3]: 8 µg/mL (≈ 19.9 µM)
MIC [4]: 0.06 µg/mL (≈ 0.149 µM)

CC(=O)OS(=O)(=O)[O-].COc1cc2cc3c4cc(-c5ccc(C)cc5)c(OC)cc4cc[n+]3c(C)c2cc1OC
MIC [1]: 8 µg/mL
MIC [2]: > 64 µg/mL
MIC [3]: 8 µg/mL
MIC [4]: 4 µg/mL

CN(C)[C@@H]1C(O)=C(C(N)=O)C(=O)[C@@]2(O)C(O)=C3C(=O)c4c(O)cccc4[C@@](C)(O)[C@H]3C[C@@H]12 [TETRACYCLINE]
MIC [1]: 64 µg/mL (≈ 144 µM)
MIC [2]: > 64 µg/mL
MIC [3]: 0.5 µg/mL (≈ 1.13 µM)
MIC [4]: 0.06 µg/mL (≈ 0.135 µM)

COc1cc2cc[n+]3cc4cc(OC)c(OC)c(-c5ccc(-c6ccccc6)cc5)c4cc3c2cc1OC.[Cl-]
MIC [1]: 4 µg/mL
MIC [2]: 32 µg/mL
MIC [3]: 8 µg/mL
MIC [4]: 2 µg/mL

CC(C)C(=O)OS(=O)(=O)[O-].COc1cc2cc3c4cc(-c5ccc(-c6ccccc6)cc5)c(OC)c(OC)c4cc[n+]3c(C(C)C)c2cc1OC
MIC [1]: 0.5 µg/mL
MIC [2]: 2 µg/mL
MIC [3]: 2 µg/mL
MIC [4]: 0.5 µg/mL
Activity [6]: tde
Activity [7]: tde

CC[C@H]1OC(=O)[C@H](C)[C@@H](O[C@H]2C[C@@](C)(OC)[C@@H](O)[C@H](C)O2)[C@H](C)[C@@H](O[C@@H]2O[C@H](C)C[C@H](N(C)C)[C@H]2O)[C@](C)(O)C[C@@H](C)C(=O)[C@H](C)[C@@H](O)[C@]1(C)O [ERYTHROMYCIN]
MIC [1]: > 64 µg/mL
MIC [2]: > 64 µg/mL
MIC [3]: 1 µg/mL (≈ 1.36 µM)
MIC [4]: 0.13 µg/mL (≈ 0.177 µM)

COc1cc2cc3c4cc(-c5ccccc5)c(OC)cc4cc[n+]3cc2cc1OC.[Cl-]
MIC [1]: 32 µg/mL
MIC [2]: 64 µg/mL
MIC [3]: 32 µg/mL
MIC [4]: 8 µg/mL

CC(=O)OS(=O)(=O)[O-].COc1cc2cc3c4cc(-c5ccccc5)c(OC)c(OC)c4cc[n+]3c(C)c2cc1OC
MIC [1]: 8 µg/mL
MIC [2]: 16 µg/mL
MIC [3]: 8 µg/mL
MIC [4]: 2 µg/mL

COc1cc2cc3c4cc(-c5ccc(-c6ccccc6)cc5)c(OC)c(OC)c4cc[n+]3cc2cc1OC.[Cl-]
MIC [1]: 2 µg/mL
MIC [2]: 4 µg/mL
MIC [3]: 8 µg/mL
MIC [4]: 2 µg/mL

CC(=O)OS(=O)(=O)[O-].COc1cc2cc[n+]3c(C)c4cc(OC)c(OC)c(-c5ccc(-c6ccccc6)cc5)c4cc3c2cc1OC
inhibition [8]: tde
MIC [1]: 4 µg/mL
MIC [2]: 32 µg/mL
MIC [3]: 4 µg/mL
MIC [4]: 1 µg/mL
Activity [6]: tde

CC(=O)OS(=O)(=O)[O-].COc1cc2c(C)[n+]3ccc4c(OC)c(OC)ccc4c3cc2c(-c2ccc(-c3ccccc3)cc2)c1OC
MIC [1]: 4 µg/mL
MIC [2]: 16 µg/mL
MIC [3]: 16 µg/mL
MIC [4]: 1 µg/mL

COc1ccc2cc3[n+](cc2c1OC)CCc1cc2c(cc1-3)OCO2 [BERBERINE]
MIC [1]: > 64 µg/mL
MIC [2]: > 64 µg/mL
MIC [3]: > 64 µg/mL
MIC [4]: > 64 µg/mL

COc1cc2cc3c4cc(-c5ccc(C(C)(C)C)cc5)c(OC)c(OC)c4cc[n+]3cc2cc1OC.[Cl-]
MIC [1]: 4 µg/mL
MIC [2]: 8 µg/mL
MIC [3]: 4 µg/mL
MIC [4]: 4 µg/mL

CC(=O)OS(=O)(=O)[O-].COc1cc2cc3c4cc(-c5ccc(-c6ccccc6)cc5)c(OC)c(OC)c4cc[n+]3c(C)c2cc1OC
MIC [1]: 2 µg/mL
MIC [2]: 8 µg/mL
MIC [3]: 4 µg/mL
MIC [4]: 1 µg/mL

COc1cc2cc3c4cc(-c5ccc(C)cc5)c(OC)cc4cc[n+]3cc2cc1OC.[Cl-]
MIC [1]: 8 µg/mL
MIC [2]: > 64 µg/mL
MIC [3]: 16 µg/mL
MIC [4]: 2 µg/mL

COc1cc2cc3c4cc(-c5cccc6ccccc56)c(OC)c(OC)c4cc[n+]3cc2cc1OC.[Cl-]
MIC [1]: 2 µg/mL
MIC [2]: 8 µg/mL
MIC [3]: 8 µg/mL
MIC [4]: 4 µg/mL

CC(=O)OS(=O)(=O)[O-].COc1cc2cc3c4cc(-c5cccc6ccccc56)c(OC)c(OC)c4cc[n+]3c(C)c2cc1OC
MIC [1]: 2 µg/mL
MIC [2]: 8 µg/mL
MIC [3]: 4 µg/mL
MIC [4]: 1 µg/mL

CC(=O)OS(=O)(=O)[O-].COc1cc2cc3c4cc(-c5ccc(C(C)(C)C)cc5)c(OC)c(OC)c4cc[n+]3c(C)c2cc1OC
MIC [1]: 2 µg/mL
MIC [2]: 4 µg/mL
MIC [3]: 4 µg/mL
MIC [4]: 1 µg/mL

CN[C@H](CC(C)C)C(=O)N[C@H]1C(=O)N[C@@H](CC(N)=O)C(=O)N[C@H]2C(=O)N[C@H]3C(=O)N[C@H](C(=O)N[C@H](C(=O)O)c4cc(O)cc(O)c4-c4cc3ccc4O)[C@H](O)c3ccc(c(Cl)c3)Oc3cc2cc(c3O[C@@H]2O[C@H](CO)[C@@H](O)[C@H](O)[C@H]2O[C@H]2C[C@](C)(N)[C@H](O)[C@H](C)O2)Oc2ccc(cc2Cl)[C@H]1O [VANCOMYCIN]
MIC [2]: > 64 µg/mL
MIC [3]: 1 µg/mL (≈ 0.69 µM)
